Here are results for 14 compounds from publication PMC8838532 (Molecules, 2022).

Where two headings read alike, the source gives them in different places.

The subject of data set [1] is A549 cells. Briefly: Resazurin cytotoxicity assay in A549 cells. The conditions noted are these: for fold more potent than imatinib / IC50: A549 cells; for fold more potent than imatinib: IC50 versus imatinib; for IC50: Homo sapiens, 48 h, resazurin, concentration-response curve; for SI WSS-1/A549: SI = IC50 (WSS-1)/IC50 (A549). It is filed as cell-based, human. On the procedure: (§1) The A549 cell line (CCL-185™; ATCC, Manassas, VA, USA), from human lung carcinoma epithelium, and the K562 cell line (Rio de Janeiro Cell Bank, BCRJ: 0126, Rio de Janeiro, RJ, Brazil), a human chronic myeloid cell line expressing the BCR-ABL1 protein, were grown in RPMI-1640 culture medium (Merck, Darmstadt, Hesse, Germany) supplemented with 10% heat-inactivated fetal bovine serum (FBS; Vitrocell, Campinas, SP, Brazil). WSS-1 [WS-1] (ATCC CRL-2029™) human […] cells were grown in high-glucose DMEM (Vitrocell) supplemented with 10% FBS (Vitrocell). All cell lines were maintained at 37 °C under 5% CO2, in a water jacket CO2 incubator (Forma Series II incubator, Thermo Fisher Scientific, Waltham, MA, USA).
(§2) Briefly, cells were seeded in 96-well microplates (2 × 10^4 cells/well for K562 cells and 5 × 10^4 cells/well for A549 and WSS-1 cells) and incubated with 10 µM of the test compounds for 48 h at 37 °C. A resazurin (Merck, Darmstadt, Hesse, Germany) solution (final concentration: 0.01 mg/mL) was added to each well before the end of the experiment, at 1 h before concluding for K562 cells, and 2 h before concluding for A549 and WSS-1 cells. Fluorescence readings (λex = 560 nm, […]) were carried out immediately after the addition of resazurin (t0) and at the end of the experiment (tn) with a FlexStation 3 Benchtop multimode microplate reader (Molecular Devices, San Jose, CA, USA). Resorufin fluorescence was calculated by subtracting the fluorescence measured at t0 from that at tn. Cell viability was expressed as percentages, considering the mean resorufin fluorescence of the control wells (cells incubated with only DMSO) to be 100%. Tests were performed in triplicate. The same assay was carried out to generate 8–10 points concentration-response curves (300 µM top compound concentration).
(§3) IC50 values were calculated by a four-parameter logistic curve function, using GraphPad Prism version 6.01 for Windows (GraphPad Software, San Diego, CA, USA, www.graphpad.com) (accessed on 29 December 2021).
(In general: Alamar Blue is a resazurin reagent that responds to reducing activity.)

The next data set deals with WSS-1 cells. Briefly: Resazurin cytotoxicity assay in WSS-1 cells. It is filed as cell-based. The conditions noted are these: WSS-1 healthy human cells, 48 h. On the procedure:
as §1, §2, §3

For data set [2], the system named is K562 cells. As to the kind of experiment: Resazurin cytotoxicity assay in K562 cells. The conditions noted are these: for viability at 10 µM: read-out: percentage of viability.
Data set [3] deals with K562 cells. To be noted: 150 μM, Figure 1; cited from earlier work.
Data set [4] deals with A549 cells. To be noted: 150 μM, cited from earlier work; for % viability reduction A549 cells: Figure 1.
The subject of data set [5] is K562 cells. More on the design: method as in PMID 30055465. The conditions noted are these: cited from earlier work.
For data set [6], the system named is K562 cells. The conditions noted are these: Figure 1; cited from earlier work.

In general, melting point refers to the temperature of the solid-liquid transition. The compound `Cc1ccc(-n2cc(CN3C(=O)C(=O)c4cc(Br)ccc43)nn2)cc1Nc1nccc(-c2cccnc2)n1` [2d, 5-bromo-1-((1-(4-methyl-3-((4-(pyridin-3-yl)pyrimidin-2-yl)amino)phenyl)-1H-1,2,3-triazol-4 yl)methyl)indoline-2,3-dione] registered a melting point of 267 to 270 °C.
In general, IC50 refers to the point on the concentration scale where inhibition reaches its midpoint. The compound `Cc1ccc(-n2cc(CN3C(=O)C(F)(F)c4cc(Br)ccc43)nn2)cc1Nc1nccc(-c2cccnc2)n1` [3d, 5-bromo-3.3-difluoro-1-((1-(4-methyl-3-((4-(pyridin-3-yl)pyrimidin-2-yl)amino)phenyl)-1H-1,2,3-triazol-4-yl)methyl)indoline-2-one] gave a melting point of 218 to 219 °C. Further, in the data set with A549 cells [1], the “fold more potent than imatinib” value is “approximately 10 fold”, the IC50 is 7.3 µM and the “SI WSS-1/A549” value came out at 2.5. The IC50 in the data set on WSS-1 cells amounted to 18.6 µM.
`Cc1ccc(-n2cc(CN3C(=O)C(=O)c4ccccc43)nn2)cc1Nc1nccc(-c2cccnc2)n1` [compound 2a, 1-((1-(4-methyl-3-((4-(pyridin-3-yl)pyrimidin-2-yl)amino)phenyl)-1H-1,2,3-triazol-4-yl)methyl)indoline-2,3-dione]: the melting point fell in the range of 237 to 239 °C.
`Cc1ccc(-n2cc(CN3C(=O)C(=O)c4cc(F)ccc43)nn2)cc1Nc1nccc(-c2cccnc2)n1` [2e, 5-fluoro-1-((1-(4-methyl-3-((4-(pyridin-3-yl)pyrimidin-2-yl)amino)phenyl)-1H-1,2,3-triazol-4 yl)methyl)indoline-2,3-dione] came in with a melting point of 251 to 253 °C.
For orientation: viability means a per cent measure of how many cells are alive, often set against a control. Regarding `Cc1ccc(NC(=O)c2ccc(CN3CCN(C)CC3)cc2)cc1Nc1nccc(-c2cccnc2)n1` [Imatinib, imatinib], the viability at 10 µM with K562 cells [2] (Homo sapiens, K562, 48 h) amounted to 30.7%. The “% viability reduction K562 cells” value in the data set on K562 cells [3] is given as 61.7%. Further, in the data set on A549 cells [4], the “% viability reduction A549 cells” value is listed as 61.2%.
As to `COc1ccc(CN2C(=O)C(=O)c3cc(-c4ccc(OC)cc4)ccc32)cc1` [compound 4], the IC50 in the data set with K562 cells [5] was 30 nM.
In the case of `Cc1ccc2c(c1)C(F)(F)C(=O)N2Cc1cn(-c2ccc(C)c(Nc3nccc(-c4cccnc4)n3)c2)nn1` [compound 3b, 3,3-difluoro-5-methyl-1-((1-(4-methyl-3-((4-(pyridin-3-yl)pyrimidin-2-yl)amino)phenyl)-1H-1,2,3-triazol-4-yl)methyl)indolin-2-one], the melting point lay in the range of 102 to 104 °C. The IC50 in the data set with K562 cells [2] (Homo sapiens, K562, 48 h, read-out: IC50 K562) amounted to 35.8 µM. Moreover, the viability at 10 µM in the data set on K562 cells [2] (Homo sapiens, K562, 48 h) was determined as 57.5%. The “SI WSS-1/K562” value in the data set on K562 cells [2] (SI = IC50 (WSS-1)/IC50 (K562)) was 1.9. In the data set on WSS-1 cells, this compound yielded an IC50 of 69.3 µM.
`Cc1ccc2c(c1)C(=O)C(=O)N2Cc1cn(-c2ccc(C)c(Nc3nccc(-c4cccnc4)n3)c2)nn1` [2b, 5-methyl-1-((1-(4-methyl-3-((4-(pyridin-3-yl)pyrimidin-2-yl)amino)phenyl)-1H-1,2,3-triazol-4 yl)methyl)indoline-2,3-dione] showed a melting point of 235 to 237 °C.
As for `Cc1ccc(-n2cc(CN3C(=O)C(F)(F)c4cc(Cl)ccc43)nn2)cc1Nc1nccc(-c2cccnc2)n1` [3c, 5-chloro-3,3-difluoro-1-((1-(4-methyl-3-((4-(pyridin-3-yl)pyrimidin-2-yl)amino)phenyl)-1H-1,2,3-triazol-4-yl)methyl)indoline-2-one], the melting point lay in the range of 223 to 224 °C. Besides, in the data set on A549 cells [1], the “fold more potent than imatinib” value was “approximately 10 fold”, the IC50 was 6.4 µM and the “SI WSS-1/A549” value came to 2.1. For the same compound, the IC50 in the data set on WSS-1 cells turned out to be 13.5 µM.
As to `Cc1ccc(-n2cc(CN3C(=O)C(F)(F)c4ccccc43)nn2)cc1Nc1nccc(-c2cccnc2)n1` [compound 3a, 3.3-difluoro-1-((1-(4-methyl-3-((4-(pyridin-3-yl)pyrimidin-2-yl)amino)phenyl)-1H-1,2,3-triazole-4-yl)methyl)indoline-2-one], the melting point came to 222 °C. For the same compound, in the data set with A549 cells [1], the “fold more potent than imatinib” value was “approximately 10 fold”, half-maximal inhibition (IC50) required 7.2 µM and the “SI WSS-1/A549” value is 1.6. Besides, in the data set on WSS-1 cells, the half-maximal inhibitory concentration (IC50) was 11.6 µM.
By cell viability is commonly meant the share of living cells, or the viability signal relative to a control. On to `CC(=O)NCC(=O)Nc1ccc(C)c(Nc2nccc(-c3cccnc3)n2)c1` [compound 8], for which the “% viability reduction K562 cells” value with K562 cells [3] is given as 66.3%. In the data set with A549 cells [4], the “% viability reduction A549 cells” value was 61.5% and the cell viability is recorded as 38.5%.
`Cc1ccc(-n2cc(CN3C(=O)C(=O)c4cc(Cl)ccc43)nn2)cc1Nc1nccc(-c2cccnc2)n1` [2c, 5-chloro-1-((1-(4-methyl-3-((4-(pyridin-3-yl)pyrimidin-2-yl)amino)phenyl)-1H-1,2,3-triazol-4 yl)methyl)indoline-2,3-dione] displayed a melting point of 257 to 260 °C.
`CCc1c2c(nc3ccc(OC(=O)N4CCC(N5CCCCC5)CC4)cc13)-c1cc3c(c(=O)n1C2)COC(=O)[C@]3(O)CC` [irinotecan]: the IC50 in the data set with K562 cells [5] is 70 nM.
Regarding `Cc1ccc(-c2cn(-c3ccc(CN4CCN(C)CC4)c(C(F)(F)F)c3)nn2)cc1Nc1nccc(-c2cccnc2)n1` [compound 7], in the data set with K562 cells [6], the half-maximal inhibitory concentration (IC50) is 30 nM.
